Here are results for one sequence from publication PMC3763380, “Cellular-Level Versus Receptor-Level Response Threshold Hierarchies in T-Cell Activation” (Frontiers in Immunology, 2013).

One test deals with CTL clone ILA1. In words: Bioassay: ILA1 CTL response to peptide-pulsed C1R-A2null targets (CD8-null HLA-A2), flow cytometry. Format: cell-based. As to conditions: read-outs CD107a, MIP-1β, TNF-α, IL-2, IFN-γ. As to the method:
Stable C1R transfectants expressing wild-type HLA-A2 (C1R-A2) or CD8-null HLA-A2 (C1R-A2null), the α3 domain of which contains the double mutation D227K/T228A that abrogates CD8 binding ([30]), were pulsed with peptide as indicated for 1 h at 37°C. For each condition, assays were set up simultaneously in 96-well plates using 4.5 × 10^5 C1R cells per well, thereby ensuring that all cellular parameters were consistent across ligand stimulations. Subsequently, brefeldin A (10 μg/ml; BD Biosciences) and monensin (0.7 μl/ml; BD Biosciences) were added together with a pre-titred concentration of the directly conjugated monoclonal antibody (mAb) αCD107a-FITC [BD Pharmingen; Ref. ([31])]. […]
Stained cell samples were acquired and recorded using a customized FACS Aria II flow cytometer (BD Biosciences) equipped for the simultaneous detection of 18 fluorescent parameters. […] The following gating tree was applied: (i) single cells were identified based on their light scatter properties; (ii) Boolean gating was carried out to exclude artifacts and fluorochrome aggregates; (iii) viable CD3^+CD19^− events were selected; (iv) outliers were eliminated in a side-scatter versus CD3 display; and (v) gates were set on cells positive for individual functional read-outs. […]
(In flow cytometry, cells or beads pass a laser one at a time.)

A further test deals with ILA1 TCR. As to conditions: SPR, ILA1 TCR/pMHCI; not first reported here (footnote Table 1); ligands largely characterized previously; ref [27], [28]; cited from earlier work. How it is done: Table 1 Biophysical parameters. | column: On-rate (M^−1s^−1); Off-rate (s^−1); KD (M) || Figure 3 Functional variation at the cell population level in response to six different peptide ligands. The CTL clone ILA1 was stimulated for 6 h with peptide-pulsed C1R-A2 targets as indicated. Five functional read-outs (CD107a, MIP-1β, TNF-α, IL-2, and IFN-γ) were measured via flow cytometry. […] (A) Overview of functional profiles. Pie chart segments represent the fraction of cells expressing the number of functions indicated in the key. (B) Detailed analysis of functional profiles at [peptide] = 10^−6 M. Pie charts are extended with arc ...
In general terms: Surface plasmon resonance follows binding to a sensor surface in real time, without labels.

On to “ILAKFLHWL [residues 540–548 (…) of the human telomerase reverse transcriptase protein]”, for which the “responses at sufficiently high presentation levels” value in the test with CTL clone ILA1 was “strongly attenuated but discernible responses”. In addition, at ILA1 TCR, the Kd was 32 µM, the Off-rate is 0.13 s⁻¹ and the On-rate is given as 4,100 M^−1s^−1.

For orientation: Kd means a measure of binding affinity in units of concentration.
